Several values for one entry are separate records, joined by “and”; a condition that tells them apart may be missing. Equal entries are not always repeated. ± gives the expanded uncertainty stated by the source.
Experiment: mn = molality of the nth substance listed, in mol/kg
Conditions: 101 kPa, Liquid, m1 = 1

Row | viscosity (303.15 K) | viscosity (308.15 K) [mPa·s] | viscosity (313.15 K) [mPa·s] | viscosity (318.15 K) [mPa·s] | viscosity (323.15 K) [mPa·s] | SMILES
1 | 0.975 ± 0.025 mPa·s | 0.8864 ± 0.023 | 0.805 ± 0.021 | 0.719 ± 0.019 | 0.655 ± 0.018 | CC(=O)[O-].[K+] [potassium ethanoate] + O
2 | 1.095 ± 0.028 mPa·s | 1.005 ± 0.026 | 0.9052 ± 0.024 | 0.801 ± 0.021 | 0.721 ± 0.019 | CC(=O)[O-].[Na+] [sodium ethanoate] + O

Row | SMILES | viscosity (303.15 K) | viscosity (308.15 K) [mPa·s] | viscosity (313.15 K) [mPa·s] | viscosity (318.15 K) [mPa·s] | viscosity (323.15 K) [mPa·s]
3 | CC(=O)[O-].CC(=O)[O-].[Ca+2] [calcium acetate] + O | 1.545 ± 0.038 mPa·s and 1.563 ± 0.038 mPa·s | 1.412 ± 0.035 | 1.265 ± 0.032 | 1.127 ± 0.029 | 0.999 ± 0.026
